Legend:
[1] = molecular target: T1, GapA (glyceraldehyde-3-phosphate dehydrogenase) (Escherichia coli, UniProt P0A9B2); assay: X-ray crystallography; settings: NAD+-binding site, part of the molecules in the asymmetric unit
T1 construct: full ORF, N-terminal His6 tag plus TDPALRA spacer (ASKA clone, pCA24N), expressed in E. coli BL21(DE3); tetramer

[2] = molecular target: T1, GapA (glyceraldehyde-3-phosphate dehydrogenase); assay: X-ray crystallography, crystal soak ( […] sec); format: binding; settings: covalent; acetylation of K46, K249, K257, K116; pH 7.5
[3] = molecular target: T2, LpdA (dihydrolipoyl dehydrogenase) (Escherichia coli, UniProt P0A9P0); assay: in vitro acetylation, anti-acetyllysine Western blot and MS1 Filtering; format: biochemical; settings: covalent; non-enzymatic lysine acetylation, non-saturating; 5-20 mM acP, 10 mM MgCl2, pH 7.3, 37°C
T2 construct: full ORF, N-terminal His6 tag plus TDPALRA spacer (ASKA clone, pCA24N), expressed in E. coli BL21(DE3)
T2 sequence (P0A9P0 whole entry): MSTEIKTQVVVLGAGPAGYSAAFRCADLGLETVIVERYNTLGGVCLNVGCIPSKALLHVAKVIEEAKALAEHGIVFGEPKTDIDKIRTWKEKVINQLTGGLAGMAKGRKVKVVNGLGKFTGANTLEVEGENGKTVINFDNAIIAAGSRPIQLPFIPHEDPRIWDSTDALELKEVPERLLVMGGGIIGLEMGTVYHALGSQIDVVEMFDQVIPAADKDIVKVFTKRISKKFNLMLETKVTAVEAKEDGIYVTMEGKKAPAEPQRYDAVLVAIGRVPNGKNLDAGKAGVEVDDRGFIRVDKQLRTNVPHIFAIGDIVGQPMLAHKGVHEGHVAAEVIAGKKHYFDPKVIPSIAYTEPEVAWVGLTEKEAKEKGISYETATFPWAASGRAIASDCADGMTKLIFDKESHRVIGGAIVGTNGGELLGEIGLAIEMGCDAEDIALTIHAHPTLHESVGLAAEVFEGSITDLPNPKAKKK

[4] = molecular target: T3, TpiA (triosephosphate isomerase) (Escherichia coli, UniProt P0A858); assay: X-ray crystallography, crystal soak ( […] sec); format: binding; settings: pH 6.5; active site near K11; non-covalent (K11 not acetylated)
T3 construct: full ORF, N-terminal His6 tag plus TDPALRA spacer (ASKA clone, pCA24N), expressed in E. coli BL21(DE3)
T3 sequence (P0A858 whole entry): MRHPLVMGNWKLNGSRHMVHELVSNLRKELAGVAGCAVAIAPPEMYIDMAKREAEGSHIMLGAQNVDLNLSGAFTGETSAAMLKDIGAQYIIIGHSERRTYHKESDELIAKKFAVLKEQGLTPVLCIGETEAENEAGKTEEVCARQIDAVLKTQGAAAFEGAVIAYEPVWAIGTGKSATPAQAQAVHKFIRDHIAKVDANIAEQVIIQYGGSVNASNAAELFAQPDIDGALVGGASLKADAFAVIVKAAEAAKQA

RNAP sigma70 holoenzyme = molecular target: T4, RNAP sigma70 holoenzyme (Escherichia coli, UniProt P00579+P0A7Z4+P0A8V2); assay: in vitro acetylation, anti-acetyllysine Western blot and MS1 Filtering; format: biochemical; settings: covalent; acetylation of RpoA K297, RpoB K1065, RpoD K493 and K593; 10 mM acP, 30 min, 10 mM MgCl2
T4 construct: gene rpoA; with DNA-directed RNA polymerase subunit beta'; DNA-directed RNA polymerase subunit omega
T4 sequence (P0A7Z4 whole entry): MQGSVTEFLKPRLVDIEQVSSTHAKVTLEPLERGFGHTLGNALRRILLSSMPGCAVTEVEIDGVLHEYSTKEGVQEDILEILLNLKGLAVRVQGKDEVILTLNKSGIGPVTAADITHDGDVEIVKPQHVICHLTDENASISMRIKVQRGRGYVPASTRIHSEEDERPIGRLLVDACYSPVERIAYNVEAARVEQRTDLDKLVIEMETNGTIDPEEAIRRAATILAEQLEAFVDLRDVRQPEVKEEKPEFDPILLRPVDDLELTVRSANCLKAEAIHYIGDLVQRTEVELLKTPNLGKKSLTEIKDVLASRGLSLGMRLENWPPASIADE
T4 sequence (P0A8V2 whole entry): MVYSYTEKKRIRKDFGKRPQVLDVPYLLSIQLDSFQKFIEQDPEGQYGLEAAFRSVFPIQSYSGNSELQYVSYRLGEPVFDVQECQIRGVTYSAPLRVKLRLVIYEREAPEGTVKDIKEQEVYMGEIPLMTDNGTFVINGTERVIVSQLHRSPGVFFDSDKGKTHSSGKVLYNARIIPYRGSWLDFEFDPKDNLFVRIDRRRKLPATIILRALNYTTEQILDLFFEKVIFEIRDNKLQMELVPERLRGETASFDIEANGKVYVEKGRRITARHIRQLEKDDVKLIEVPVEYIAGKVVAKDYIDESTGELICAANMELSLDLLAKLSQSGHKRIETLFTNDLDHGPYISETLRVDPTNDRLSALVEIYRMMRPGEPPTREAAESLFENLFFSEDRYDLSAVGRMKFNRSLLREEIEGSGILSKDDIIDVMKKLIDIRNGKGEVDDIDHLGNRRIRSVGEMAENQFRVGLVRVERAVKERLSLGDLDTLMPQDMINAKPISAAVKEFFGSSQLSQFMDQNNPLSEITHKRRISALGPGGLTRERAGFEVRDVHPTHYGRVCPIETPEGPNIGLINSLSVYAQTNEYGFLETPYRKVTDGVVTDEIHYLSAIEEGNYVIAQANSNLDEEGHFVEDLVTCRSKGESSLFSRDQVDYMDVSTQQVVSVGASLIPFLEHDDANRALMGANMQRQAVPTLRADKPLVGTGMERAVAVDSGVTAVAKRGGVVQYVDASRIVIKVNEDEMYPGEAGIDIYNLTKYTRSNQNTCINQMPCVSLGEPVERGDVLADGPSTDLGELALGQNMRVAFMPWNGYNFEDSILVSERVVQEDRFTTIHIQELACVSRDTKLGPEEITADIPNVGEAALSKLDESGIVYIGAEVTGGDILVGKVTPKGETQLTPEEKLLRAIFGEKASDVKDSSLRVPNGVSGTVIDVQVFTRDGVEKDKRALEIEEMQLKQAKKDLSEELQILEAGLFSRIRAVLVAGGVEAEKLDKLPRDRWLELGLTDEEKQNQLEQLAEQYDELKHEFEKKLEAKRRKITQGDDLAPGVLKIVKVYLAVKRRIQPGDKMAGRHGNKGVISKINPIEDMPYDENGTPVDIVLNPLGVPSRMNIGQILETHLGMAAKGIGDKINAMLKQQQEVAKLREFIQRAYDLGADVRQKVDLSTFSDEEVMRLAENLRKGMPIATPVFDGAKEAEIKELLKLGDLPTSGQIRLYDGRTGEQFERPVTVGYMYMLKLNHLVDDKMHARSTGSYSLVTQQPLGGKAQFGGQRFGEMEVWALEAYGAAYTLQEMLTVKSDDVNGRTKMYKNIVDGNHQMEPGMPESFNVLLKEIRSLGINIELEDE
T4 sequence (P00579 whole entry): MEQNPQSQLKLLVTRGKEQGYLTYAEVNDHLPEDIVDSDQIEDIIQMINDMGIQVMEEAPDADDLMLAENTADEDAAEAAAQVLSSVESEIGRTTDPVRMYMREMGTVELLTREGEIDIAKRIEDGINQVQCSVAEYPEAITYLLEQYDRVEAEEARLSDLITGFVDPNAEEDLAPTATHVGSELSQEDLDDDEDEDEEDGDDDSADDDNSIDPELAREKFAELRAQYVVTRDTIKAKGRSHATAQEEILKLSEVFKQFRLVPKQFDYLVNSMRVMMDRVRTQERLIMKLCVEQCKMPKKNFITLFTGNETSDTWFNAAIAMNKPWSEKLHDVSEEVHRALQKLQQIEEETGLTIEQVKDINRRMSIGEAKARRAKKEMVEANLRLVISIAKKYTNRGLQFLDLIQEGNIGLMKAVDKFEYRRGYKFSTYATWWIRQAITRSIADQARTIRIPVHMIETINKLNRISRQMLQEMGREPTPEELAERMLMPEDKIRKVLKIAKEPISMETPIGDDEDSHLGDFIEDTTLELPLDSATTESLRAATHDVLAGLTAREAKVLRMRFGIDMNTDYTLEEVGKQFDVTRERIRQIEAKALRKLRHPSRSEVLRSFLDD
T4 sequence (P0A8T7 whole entry partner): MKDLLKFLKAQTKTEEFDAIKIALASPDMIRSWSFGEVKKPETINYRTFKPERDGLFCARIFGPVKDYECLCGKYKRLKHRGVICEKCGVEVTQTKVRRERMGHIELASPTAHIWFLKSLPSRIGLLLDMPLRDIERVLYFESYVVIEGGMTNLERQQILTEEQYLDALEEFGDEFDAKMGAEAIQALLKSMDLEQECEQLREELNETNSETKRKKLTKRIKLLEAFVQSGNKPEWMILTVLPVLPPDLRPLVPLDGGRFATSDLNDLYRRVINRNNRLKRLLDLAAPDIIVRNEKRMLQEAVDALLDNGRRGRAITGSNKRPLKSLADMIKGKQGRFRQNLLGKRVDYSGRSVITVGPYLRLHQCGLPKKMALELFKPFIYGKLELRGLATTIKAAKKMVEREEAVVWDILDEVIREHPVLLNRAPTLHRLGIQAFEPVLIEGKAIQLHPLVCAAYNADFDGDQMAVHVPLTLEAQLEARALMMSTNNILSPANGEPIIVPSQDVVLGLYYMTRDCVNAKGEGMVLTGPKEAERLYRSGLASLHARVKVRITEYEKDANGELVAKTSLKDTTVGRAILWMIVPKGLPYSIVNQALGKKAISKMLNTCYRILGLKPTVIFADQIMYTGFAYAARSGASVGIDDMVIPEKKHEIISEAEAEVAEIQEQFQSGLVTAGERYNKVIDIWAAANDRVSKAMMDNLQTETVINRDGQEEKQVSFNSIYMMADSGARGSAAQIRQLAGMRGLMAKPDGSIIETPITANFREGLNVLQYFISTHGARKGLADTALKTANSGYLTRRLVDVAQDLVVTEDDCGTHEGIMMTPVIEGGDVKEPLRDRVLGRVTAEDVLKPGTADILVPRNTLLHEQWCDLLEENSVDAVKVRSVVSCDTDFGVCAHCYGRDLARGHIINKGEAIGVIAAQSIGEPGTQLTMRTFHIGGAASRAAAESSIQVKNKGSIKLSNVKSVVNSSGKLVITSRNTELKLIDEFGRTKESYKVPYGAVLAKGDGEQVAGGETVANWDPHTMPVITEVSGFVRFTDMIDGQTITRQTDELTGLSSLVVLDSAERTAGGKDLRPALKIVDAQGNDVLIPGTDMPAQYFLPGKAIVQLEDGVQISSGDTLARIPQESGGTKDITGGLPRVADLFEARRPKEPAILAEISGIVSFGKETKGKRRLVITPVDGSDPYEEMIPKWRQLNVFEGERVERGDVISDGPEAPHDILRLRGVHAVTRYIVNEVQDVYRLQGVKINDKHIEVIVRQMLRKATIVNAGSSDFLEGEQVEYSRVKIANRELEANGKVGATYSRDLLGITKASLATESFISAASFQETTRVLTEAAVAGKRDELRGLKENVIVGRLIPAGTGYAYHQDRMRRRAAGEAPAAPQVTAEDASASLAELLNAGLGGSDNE
T4 sequence (P0A800 2-91 partner): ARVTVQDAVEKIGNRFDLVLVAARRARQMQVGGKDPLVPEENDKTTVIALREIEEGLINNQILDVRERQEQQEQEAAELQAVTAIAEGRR

T1 sequence (P0A9B2 whole entry): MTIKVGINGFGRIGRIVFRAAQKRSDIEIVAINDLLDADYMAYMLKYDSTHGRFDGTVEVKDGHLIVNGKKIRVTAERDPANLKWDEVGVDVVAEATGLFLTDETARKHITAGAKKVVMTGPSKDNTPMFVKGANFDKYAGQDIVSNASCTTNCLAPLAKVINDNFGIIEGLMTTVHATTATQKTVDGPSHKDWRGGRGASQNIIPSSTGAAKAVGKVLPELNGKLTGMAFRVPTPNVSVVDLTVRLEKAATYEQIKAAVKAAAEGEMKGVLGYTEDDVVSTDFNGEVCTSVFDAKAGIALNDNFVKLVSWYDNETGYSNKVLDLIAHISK

In the case of `NC(=O)c1ccc[n+]([C@@H]2O[C@H](COP(=O)(O)OP(=O)(O)OC[C@H]3O[C@@H](n4cnc5c(N)ncnc54)[C@H](O)[C@@H]3O)[C@@H](O)[C@H]2O)c1` [NAD^+], the X-ray crystallography [1] is reported as “had either NAD^+ or pyrophosphate bound in the NAD^+-binding site”.

For `CC(=O)OP(=O)(O)O` [acP], the “X-ray crystallography, crystal soak (<30 sec)” value [2] was “acP-dependent acetylation had already occurred on four residues (i.e., K46, K249, K257, and K116)”, the “in vitro acetylation, anti-acetyllysine Western blot and MS1 Filtering” value [3] was “when incubated with acP, purified LpdA became acetylated in a dose- and time-dependent manner” and the “X-ray crystallography, crystal soak (<30 sec)” value [4] was “The structures showed that acP bound near K11, where the substrate DHAP is seen to bind”. For the same compound, the “in vitro acetylation, anti-acetyllysine Western blot and MS1 Filtering” value (RNAP sigma70 holoenzyme) was “significant relative increases in acetylation were observed for K297 of RpoA, for K1065 of RpoB”.

For `O=P(O)(O)OP(=O)(O)O` [pyrophosphate], the X-ray crystallography ([1]; source of ligand not told) was “had either NAD^+ or pyrophosphate bound in the NAD^+-binding site”.

Source: article PMC3995681, “Structural, Kinetic and Proteomic Characterization of Acetyl Phosphate-Dependent Bacterial Protein Acetylation” (PLoS ONE, 2014)
